According to publication PMC5931594, “Substrate-bound outward-open structure of a Na^+-coupled sialic acid symporter reveals a new Na^+ site” (Nature Communications, 2018):
Where two headings read alike, the source gives them in different places.

Target: T1, SiaT (Proteus mirabilis, UniProt B4EZY7)
T1 construct: full-length, C-terminal HRV 3C site-GFP-8xHis tag cleaved by 3C protease; reconstituted in proteoliposomes for uptake
Assay: microscale thermophoresis, label-free
Assay type: binding
Conditions: PBS, 0.0174% DDM

T1 sequence (B4EZY7 whole entry): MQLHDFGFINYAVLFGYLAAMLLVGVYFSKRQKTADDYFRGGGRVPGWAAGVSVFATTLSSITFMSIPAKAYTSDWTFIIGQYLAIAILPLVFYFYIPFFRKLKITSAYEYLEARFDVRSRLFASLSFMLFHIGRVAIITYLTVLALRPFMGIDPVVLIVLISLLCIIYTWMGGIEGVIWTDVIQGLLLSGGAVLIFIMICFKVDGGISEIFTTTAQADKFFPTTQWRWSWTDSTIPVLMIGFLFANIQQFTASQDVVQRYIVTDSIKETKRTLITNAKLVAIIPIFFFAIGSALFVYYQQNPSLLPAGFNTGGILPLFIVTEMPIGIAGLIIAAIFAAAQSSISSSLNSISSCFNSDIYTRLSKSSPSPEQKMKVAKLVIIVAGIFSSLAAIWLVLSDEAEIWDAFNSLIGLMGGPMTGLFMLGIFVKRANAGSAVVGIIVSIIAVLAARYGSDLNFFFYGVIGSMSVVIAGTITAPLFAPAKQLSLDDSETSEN

Row | SMILES | Kd (read-out: Kd^Neu5Gc) [µM] | Kd [µM]
1 | O=C(CO)N[C@H]1[C@H]([C@H](O)[C@H](O)CO)OC(O)(C(=O)O)C[C@@H]1O (some centres unmarked) [N-glycolylneuraminic acid] | 85 ± 2 | –
2 | O=C(O)C1(O)C[C@H](O)[C@@H](O)[C@H]([C@H](O)[C@H](O)CO)O1 (some centres unmarked) [ketodeoxynonulosonic acid] | – | > 10000
